Test systems include SK-MEL-2; OVCAR-4; EKVX; SK-MEL-28; CAKI-1; MDA-MB-435; PC-3; OVCAR-8; RPMI-8226; A498; IGROV-1; HOP-62; NCI-H522; U-251; HCT-15; RXF 393; HCC 2998; HOP-92; OVCAR-3.
Assay in all cases: NCI anticancer screen, dose series, 48 h

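Test compounds were applied to cells in 96-well plates for 48 hours at 5 doses. Abbreviation: GI50, concentration required for 50% inhibition of growth.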 Calls of active or inactive are those of the source. Cut-off read from the data, not from the text of the source: active = GI50 up to about 1.1 µM and inactive = higher.

On to `OC(COc1ccc(Cl)cc1Cl)CN1CCCC1` (stereo not given), for which the GI50 with SK-MEL-2 was > 100 µM (inactive); in the experiment on OVCAR-4, > 100 µM (inactive); in the experiment with EKVX it was 21.1 µM (inactive); in the experiment on SK-MEL-28, 37.7 µM (inactive); in the experiment on CAKI-1, > 100 µM (inactive); in the experiment with MDA-MB-435 it was 74.1 µM (inactive). In addition, the GI50 with PC-3 is > 100 µM (inactive); with OVCAR-8, > 100 µM (inactive); in the experiment on RPMI-8226, 57 µM (inactive); in the experiment with A498, 38.1 µM (inactive); with IGROV-1, > 100 µM (inactive); with HOP-62 it was > 100 µM (inactive). Also, the GI50 in the experiment on NCI-H522 was 52.8 µM (inactive); with U-251, > 100 µM (inactive); in the experiment with HCT-15, above 100 µM; with RXF 393, > 100 µM (inactive); with HCC 2998, 32.9 µM (inactive); in the experiment with HOP-92 it was 75.9 µM (inactive). Moreover, the GI50 in the experiment with OVCAR-3 was 58.9 µM (inactive).

On to `O=C1c2ccccc2CC12Cc1ccc3c(c1C2)CCC3` (stereo not given), for which the GI50 is 15.9 µM (inactive) with SK-MEL-2; 22.2 µM (inactive) in the experiment with OVCAR-4; 16.9 µM (inactive) in the experiment with EKVX; 31 µM (inactive) in the experiment with SK-MEL-28; 26.8 µM (inactive) in the experiment with CAKI-1; 16.1 µM (inactive) with MDA-MB-435. The GI50 was 26 µM (inactive) in the experiment with PC-3; 28.8 µM (inactive) in the experiment on OVCAR-8; 19 µM (inactive) with RPMI-8226; 85.3 µM (inactive) with A498; 25.5 µM (inactive) with IGROV-1; 23.3 µM (inactive) with HOP-62. The GI50 in the experiment on NCI-H522 was 4.54 µM (inactive); in the experiment with U-251 it was 16.9 µM (inactive); in the experiment with HCT-15, 14.6 µM; with RXF 393, 16.4 µM (inactive); with HCC 2998, 24.3 µM (inactive); with HOP-92, 14 µM (inactive). For the same compound, the GI50 in the experiment on OVCAR-3 was 17.4 µM (inactive).

Take `COc1cc2c(cc1OC)[C@H]1C(=O)c3cc4c(cc3[C@H]1N(C)C2=O)OCO4`: the GI50 is > 100 µM (inactive) in the experiment on SK-MEL-2; > 100 µM (inactive) in the experiment with OVCAR-4; > 100 µM (inactive) in the experiment with EKVX; > 100 µM (inactive) in the experiment with SK-MEL-28; 3.13 µM (inactive) in the experiment with CAKI-1; 16.6 µM (inactive) in the experiment on MDA-MB-435. For the same compound, the GI50 in the experiment on PC-3 was 9.04 µM (inactive); in the experiment with OVCAR-8, 30.4 µM (inactive); in the experiment on RPMI-8226, 4.34 µM (inactive); in the experiment with A498 it was 8.43 µM (inactive); in the experiment on IGROV-1 it was 11.2 µM (inactive); in the experiment with HOP-62 it was 5.07 µM (inactive). Further, the GI50 in the experiment with NCI-H522 was 1.06 µM (active); in the experiment on U-251, 1.03 µM (active); in the experiment with HCT-15, 14.7 µM; in the experiment with RXF 393, 21.8 µM (inactive); in the experiment with HCC 2998, 37.6 µM (inactive); in the experiment on HOP-92, 22.2 µM (inactive). Also, the GI50 in the experiment on OVCAR-3 is 19.2 µM (inactive).

Regarding `CCCCCCCCCCC(O)C1CCC(C2CCC(C(O)CCCCC(O)CCCCCC(O)CC3=CC(C)OC3=O)O2)O1` (stereo not given), the GI50 is > 25 µM (inactive) with SK-MEL-2; > 25 µM (inactive) in the experiment on OVCAR-4; 4.09 µM (inactive) with EKVX; > 25 µM (inactive) with SK-MEL-28; > 25 µM (inactive) in the experiment on CAKI-1; > 25 µM (inactive) with MDA-MB-435. Besides, the GI50 in the experiment on PC-3 was > 25 µM (inactive); in the experiment with OVCAR-8, 4.51 µM (inactive); in the experiment on RPMI-8226, > 16.4 µM (inactive); with A498, > 25 µM (inactive); in the experiment on IGROV-1, 3.72 µM (inactive); with HOP-62 it was > 25 µM (inactive). For the same compound, the GI50 was 19.1 µM (inactive) in the experiment with NCI-H522; > 25 µM (inactive) with U-251; above 25 µM in the experiment on HCT-15; > 17.2 µM (inactive) with RXF 393; > 25 µM (inactive) in the experiment on HCC 2998; > 25 µM (inactive) in the experiment with HOP-92. The GI50 in the experiment with OVCAR-3 is > 25 µM (inactive).

Consider `COc1ccc2[nH]c3cc4c(=O)c5cc(OC)ccc5[nH]c4cc3c(=O)c2c1`, for which the GI50 with SK-MEL-2, in the experiment with OVCAR-4, in the experiment with EKVX, in the experiment on SK-MEL-28, in the experiment with CAKI-1 and with MDA-MB-435 was > 100 µM (inactive) in each case. Moreover, the GI50 is > 100 µM (inactive) in the experiment on PC-3; > 100 µM (inactive) in the experiment with OVCAR-8; > 100 µM (inactive) in the experiment with RPMI-8226; > 100 µM (inactive) in the experiment on A498; > 100 µM (inactive) in the experiment with IGROV-1; 69.5 µM (inactive) with HOP-62. The GI50 in the experiment on NCI-H522 was > 100 µM (inactive); in the experiment on U-251, > 100 µM (inactive); in the experiment on HCT-15, above 100 µM; with RXF 393, > 100 µM (inactive); in the experiment on HCC 2998, > 100 µM (inactive); with HOP-92, > 100 µM (inactive). In addition, the GI50 with OVCAR-3 was > 100 µM (inactive).

These data come from ChEMBL document CHEMBL1201862, “PubChem BioAssay data set” (2004).
